Experimental data from patent publication US11541023B2, “Compounds and compositions for the treatment of neurodegenerative and inflammatory diseases” (SORBONNE UNIVERSITE, priority 2018, dated 2023).
Structures can show the parent of a compound that is named as a salt.

Key:
KLK6 = KLK6 (Homo sapiens (Human), UniProt Q92876); assay: KLK6 enzymatic inhibition test (fluorogenic/FRET peptide substrates); settings: for inhibition at 10 µM: read-out: % Inhibition at 10 μM
[1] = test system: CG4 cell line (rat oligodendrocyte precursor cells), GFP/mCherry; assay: Cytotoxicity on GFP/mCherry oligodendrocyte line (Hoechst staining); format: cell-based; settings: 72 h
Procedure: FIGS. 2 and 3: Evaluation of the cytotoxicity of the compounds 2 and 3 on the GFP/-mCherry oligodendrocyte line. The cell survival was evaluated by measuring the fluorescence intensity of the Hoechst staining compared with the basal control (TB). Each concentration was tested in quadruplicate. Statistics: Mann-Whitney test (p value=0.019). […] Legend—TB: basal control, T+: positive control (9-cis-retinoic acid). The line used is a CG4 cell line, said cell line being rat oligodendrocyte precursor cells (OPCs), and doubly transduced with the GFP gene under the control of the CMV promoter and the mCherry marker gene under the control of a promoter specific for differentiated and mature oligodendrocytes. The mCherry marker is expressed only at the differentiated oligodendrocyte stage and thus makes it possible to test compounds capable of inducing OPC differentiation. The cells were also stained with Hoechst in order to evaluate their viability. The cells are cultured in the proliferation medium described by Louis et al. (Louis et al., J Neurosci Res. 1992 January; 31(1):193-204) during their seeding, and then transferred into a differentiation medium (DMEM/F12, B27, N1, biotin, laminin). The cells are treated with various concentrations of inhibitor for 72 h in 96-well plates, then screened by means of an automated inverted microscope. The experimental controls used are a basal control containing only the differentiation medium and a positive control, 9-cis-retinoic acid, which is known for its effect in inducing OPC differentiation (Huang et al., Nature Neuroscience 14, 45-53 (2011)). Firstly, the cytotoxicity of the compounds is evaluated by virtue of the comparison of the intensity of the Hoechst staining for each experimental condition with respect to the basal control.

KLK1 = KLK1 (Homo sapiens (Human), UniProt P06870); assay: KLK1 enzymatic inhibition test (Boc-PFR-AMC); format: biochemical; settings: for inhibition at 10 µM: KLK1 1.6 nM, Boc-PFR-AMC 100 μM, 15 min at 37° C., compound 10 μM; for IC50: KLK1, Boc-PFR-AMC, ni = non-inhibitor
Procedure: The molecules were tested in order to evaluate their possible inhibitory effect on the enzymatic activity of KLK1. […] The results are presented in Table 4 below; all the inhibitors are reversible.

[2] = test system: primary culture of murine cortical neurons; assay: Neurocytotoxicity, XTT cell survival test; format: cell-based; settings: for % cell survival: 48 h
Procedure: FIG. 1: Evaluation of the neurocytotoxicity of the compounds 1 (comparative), 2 and 4 (according to the invention). The percentage cell survival was determined by measuring the absorbance at 485 nm for each concentration compared with the controls treated only with complete medium (positive control) or 20% DMSO (negative control). Each concentration was tested in quadruplicate. The neurons were taken from the stage E16 embryos of Swiss females. The cells are seeded at a density of 50 000 cells/well in precoated sterile transparent 96-well plates. The cells are cultured for 48 h in DMEM medium supplemented with 10% fetal calf serum (FCS), penicillin, streptomycin, N2 and B27, at 37° C. under a humid atmosphere with 5% CO2. The cells are then placed in the presence of the compounds described above (10, 25 or 50 μM) or of the DMSO control, and then incubated for 48 h. The medium is then replaced with 100 μl of XTT (0.3 mg·ml^−1) in order to carry out the cell viability test. […] The activity of the mitochondria is determined by measuring the absorbance at 485 nm. The percentage cell survival is calculated by the ratio of the absorbance in the presence of the inhibitor relative to the control condition (DMSO). The molecule is considered to be cytotoxic when the percentage cell survival is less than 80%.

plasmin = plasmin (Homo sapiens (Human), UniProt P00747); assay: Plasmin enzymatic inhibition test (Boc-QAR-AMC / PAR4 FRET substrate); settings: for inhibition at 10 µM: read-out: % Inhibition at 10 μM
[3] = plasmin, FRET substrate PAR4, ni = non-inhibitor

KLK1, sequence (P06870 25-262): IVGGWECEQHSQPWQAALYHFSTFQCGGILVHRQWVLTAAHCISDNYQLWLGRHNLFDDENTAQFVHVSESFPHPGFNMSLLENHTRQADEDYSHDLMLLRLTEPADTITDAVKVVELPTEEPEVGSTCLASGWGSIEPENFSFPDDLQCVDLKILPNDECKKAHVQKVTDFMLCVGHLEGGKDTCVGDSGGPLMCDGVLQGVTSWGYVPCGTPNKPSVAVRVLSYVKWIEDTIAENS
plasmin, sequence (P00747 581-810 limits assumed): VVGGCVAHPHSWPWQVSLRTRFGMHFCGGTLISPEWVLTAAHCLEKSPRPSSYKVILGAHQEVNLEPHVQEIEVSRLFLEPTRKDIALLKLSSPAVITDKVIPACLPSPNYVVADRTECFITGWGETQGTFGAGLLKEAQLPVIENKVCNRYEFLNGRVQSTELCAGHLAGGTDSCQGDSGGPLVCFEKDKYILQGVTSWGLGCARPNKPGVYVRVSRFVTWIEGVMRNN
plasmin, sequence (P00747 97-580 partner limits assumed): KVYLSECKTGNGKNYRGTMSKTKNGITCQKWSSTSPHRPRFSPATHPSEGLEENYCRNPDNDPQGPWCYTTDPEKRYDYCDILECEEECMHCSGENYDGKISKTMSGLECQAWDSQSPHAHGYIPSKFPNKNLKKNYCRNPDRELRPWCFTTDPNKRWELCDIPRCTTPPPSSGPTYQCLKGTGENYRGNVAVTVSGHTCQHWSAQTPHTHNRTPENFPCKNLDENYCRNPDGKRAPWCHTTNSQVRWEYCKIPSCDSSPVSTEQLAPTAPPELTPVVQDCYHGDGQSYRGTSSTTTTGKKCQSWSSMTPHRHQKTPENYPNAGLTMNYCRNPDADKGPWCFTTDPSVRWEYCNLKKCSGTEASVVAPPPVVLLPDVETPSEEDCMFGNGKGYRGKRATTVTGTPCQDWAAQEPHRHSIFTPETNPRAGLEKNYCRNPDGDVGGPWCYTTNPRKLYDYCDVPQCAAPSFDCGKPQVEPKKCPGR

| Structure (SMILES) | inhibition at 10 µM (KLK6) | inhibition at 10 µM (KLK1) | IC50 (KLK1) | % cell survival ([2]; 10 μM) | IC50 (plasmin; [3]) | inhibition at 10 µM (plasmin) | % cell survival ([2]; 25 μM) | further results |
| --- | --- | --- | --- | --- | --- | --- | --- | --- |
| CC(C)(C)c1ccc(O)c(C(=O)Nc2ccc(CN)cc2)c1.Cl [Compound 1, N-(4-(Aminomethyl)phenyl)-5-tert-butyl-2-hydroxybenzamide hydrochloride, reference compound] | 51% | 32.8% | ni | > 80% | ni | 39.3% | – | Inhibition type (KLK6; KLK6, Boc-QAR-AMC, competitive/noncompetitive by Dixon method): Competitive; IC50 (KLK6; KLK6, FRET substrate MBP3): 39.8 µM; IC50 (KLK6; KLK6, FRET substrate PAR2): 21.7 µM; IC50 (KLK6; KLK6, substrate Boc-QAR-AMC): 9.06 µM; Ki (KLK6; KLK6, substrate Boc-QAR-AMC, Dixon method): 4.44 µM; Inhibition type (reversibility) (KLK6; KLK6, dilution method): reversible; Concentrations at which toxicity is exhibited ([1]; oligodendrocyte line): above 10 μM; Neurocytotoxicity ([2]; 10, 25 and 50 μM): dose-dependent effect; Inhibition type (plasmin; plasmin, Boc-QAR-AMC, competitive/noncompetitive by Dixon method): Competitive; IC50 (plasmin; plasmin, substrate Boc-QAR-AMC): 17.1 µM; Ki (plasmin; plasmin, substrate Boc-QAR-AMC, Dixon method): 14.4 µM; Inhibition type (reversibility) (plasmin; plasmin, dilution method): reversible |
| NCc1ccc(NC(=O)c2cc3ccccc3cc2O)cc1 [Compound 3, N-(4-(Aminomethyl)phenyl)-3-hydroxy-2-naphthamide hydrochloride] | – | 77% | – | – | – | 81% | – | – |
| CC(C)c1ccc(C(=O)Nc2ccc(CN)cc2)c(O)c1 [Compound 6, N-(4-(Aminomethyl)phenyl)-4-isopropyl-2-hydroxybenzamide hydrochloride] | 84.7% | 57.7% | – | – | – | 70.2% | – | – |
| COc1ccc2c(O)c(C(=O)Nc3ccc(CN)cc3)ccc2c1 [Compound 5, N-(4-(Aminomethyl)phenyl)-6-methoxy-1-hydroxy-2-naphthamide hydrochloride] | – | 46.5% | – | – | – | 100% | – | – |
| Cl.NCc1ccc(NC(=O)c2ccc3ccccc3c2O)cc1 [Compound 2, N-(4-(Aminomethyl)phenyl)-1-hydroxy-2-naphthamide hydrochloride] | 77.2% | 47.7% | ni | > 80% | – | 97.4% | > 90% | Cytotoxicity (Hoechst staining relative to basal control) ([1]; all concentrations tested): not cytotoxic; % cell survival ([2]; second statement printed as 25 μM (presumably 50 μM)): > 90% |
| Cc1ccc(C(=O)Nc2ccc(CN)cc2)c(O)c1.Cl [Compound 4, N-(4-(Aminomethyl)phenyl)-4-methyl-2-hydroxybenzamide hydrochloride] | 68.8% | 61.7% | – | > 80% | ni | 54.3% | > 90% | Cytotoxicity ([1]; between 2 and 12 μM): does not exhibit any toxicity |
